{"source": "patent US20150198584A1", "about": "“IDENTIFICATION OF […] STATES” ([…] AG, priority 2014, published 2015)", "key": {"K562 cells": {"system": "K562 cells", "experiment": "Cell cycle measured by DNA content in K562 cells", "assay_type": "cell-based, human", "conditions": "30 min exposure, listed as imatinib", "procedure": "Cells were deposited onto dilutions of test compounds deposited into individual wells of 96 well plates, as indicated above. […] Following 15 min incubation (at 37° C.?), cells were pelleted by centrifugation, supernatant removed, and the cells were suspended by vibrating the plate.\nCell were permeabilized by adding 150 μl cold absolute methanol, followed by incubation at 4° C. for 15 minutes. Permeabilized cells were centrifuged, supernatant removed, and cells were washed three times with cold (4° C.) PBS containing 4% FBS. Following the final wash, cells were centrifuged, the supernatant was removed, and cells were re-suspended in an antibody cocktail (total volume 20 μl) appropriate for that experiment."}, "HL-60 cells": {"system": "HL-60 cells", "experiment": "Mitochondrial membrane potential (MMP) with JC-9, red and green fluorescence, flow cytometry", "assay_type": "cell-based, human", "procedure": "Cells were deposited into 384 well plates (1×10^6 cells in 40 μl tissue culture media) and serial dilutions of test compounds (or vehicle in the case of controls) were deposited in individual wells using standard robotic techniques. Compound deposition and dilution was performed by BIOMEK FX (5 or 10 step dilutions from 100 to 0.005 μM). Dilutions were prepared from stock solutions of compounds dissolved initially in 100% DMSO. Final volume deposited into each well is 2 μl of each compound dilution (compounds are in a final concentration of 1% DMSO). After incubation in a tissue culture incubator (5% CO2 at 37° C.) for varying periods of time (typically 4 hours), plates were centrifuged at room temperature, followed by removal of 20 μl supernatant fluid, After vibration of the plate to re-suspend cells, a dye mix (Plate in Monobromobimane, CALCEIN AM, MITOSOX™ and SYTOSOX™ RED; plate 1b VYBRANVIOLET™ Live Cell Cycle dye, JC-9, and SYTOSOX™ RED) was added in a total volume of 20 μl, followed by an additional mixing step. Plates were returned to the tissue culture incubator (5% CO2 at 37° C.) for an additional 15 min (plate 1a) or 30 min (plate 1b), followed by immediate analysis using the […]-CYAN™.\n(§1) Each well of the 384 wellplate was sampled with a 6 second sip time, plus 1 second delay between wells, resulting in a total read time for each plate of approximately 45 minutes. Data was acquired using a CYAN™ flow cytometer, with the […]™ software used to compile files for each well on an individual plate using an FCS format. Data for each plate was subsequently analyzed for several quality assurance parameters (total number of events per well, numbers of events associated with morphologically normal events, number of dead cells), as described below.\nMeasurements identical to those described in Example 2 above were made using a second combination of dyes:\n(2) JC-9 to measure mitochondrial membrane potential (MMP); and\nThe measurement of mitochondrial membrane potential (MMP) with JC-9 was performed with two independent fluorescence channels (green and red fluorescence signals), as changes in MMP cause aggregation of the dye, with different fluorescence emission by the aggregated versus non-aggregated dye molecules. […] At higher valinomycin concentrations, red fluorescence […]. A unique aspect of this assay is that it correlates changes in MMP (JC-9) and cell death (SYTOXRED™) with the phases of the cell cycle (G1, S, and G2M)."}, "HL-60 cell line": {"system": "HL-60 cell line", "experiment": "Cell physiology assay plate 1a (MBBR, CALCEIN AM, MITOSOX RED, SYTOXRED, light scatter) by flow cytometry", "assay_type": "cell-based, human", "procedure": "Cells were deposited into 384 well plates (1×10^6 cells in 40 μl tissue culture media) and serial dilutions of test compounds (or vehicle in the case of controls) were deposited in individual wells using standard robotic techniques. Compound deposition and dilution was performed by BIOMEK FX (5 or 10 step dilutions from 100 to 0.005 μM). Dilutions were prepared from stock solutions of compounds dissolved initially in 100% DMSO. Final volume deposited into each well is 2 μl of each compound dilution (compounds are in a final concentration of 1% DMSO). After incubation in a tissue culture incubator (5% CO2 at 37° C.) for varying periods of time (typically 4 hours), plates were centrifuged at room temperature, followed by removal of 20 μl supernatant fluid, After vibration of the plate to re-suspend cells, a dye mix (Plate in Monobromobimane, CALCEIN AM, MITOSOX™ and SYTOSOX™ RED; plate 1b VYBRANVIOLET™ Live Cell Cycle dye, JC-9, and SYTOSOX™ RED) was added in a total volume of 20 μl, followed by an additional mixing step.\nas §1, with “Data” for “Each well of the 384 wellplate was sampled with a 6 second sip time, plus 1 second delay between wells, resulting in a total read time for each plate of approximately 45 minutes. Data”\nFlow cytometric analyses of intrinsic cell properties (forward light scatter and light scattered orthogonal to the laser beam) and fluorescence signals derived from the dyes listed in Table 1 was carried out for plates 1a and 1b.\nMITOSOX™ RED is a compound that can diffuse into viable cells and reacts with superoxide anion species, particularly products of mitochondrial respiration; conditions such as cell stress can cause mitochondria to respond (sometimes rapidly) by increasing respiration and/or release superoxide anions; and\n(3) SYTOXRED™ to measure cell viability (loss of nuclear membrane integrity). SYTOXRED™ is a high-affinity DNA stain that can only pass through the cytoplasmic and nuclear membranes of cells which have lost the integrity of both membranes; thus, brightly fluorescent cells are dead."}, "[1]": {"system": "human peripheral blood monocytes", "experiment": "Kinetics of signal transduction responses to LPS in whole blood monocytes, flow cytometry of fixed and permeabilized cells", "assay_type": "cell-based", "conditions": "LPS in the presence of the inhibitor, compared to LPS alone"}, "[2]": {"conditions": "HL-60 cells, concentration series"}, "[3]": {"conditions": "HL-60 cells, increasing concentration"}, "[4]": {"conditions": "33 μM, population with altered morphology, compared to cells with normal morphology"}, "[5]": {"conditions": "33 μM, population with normal morphology"}}, "note": "“Also recorded” adds a separate entry of the source."}
{"smiles": "Cc1ccc(NC(=O)c2ccc(CN3CCN(C)CC3)cc2)cc1Nc1nccc(-c2cccnc2)n1", "note": "[GLEEVEC™]", "values": [{"measurement": "change in the cell cycle, as measured by DNA content", "setting": "K562 cells", "result": "no concomitant change"}]}
{"smiles": "CC(C)[C@@H]1NC(=O)[C@H](C)OC(=O)[C@@H](C(C)C)NC(=O)[C@@H](C(C)C)OC(=O)[C@H](C(C)C)NC(=O)[C@H](C)OC(=O)[C@@H](C(C)C)NC(=O)[C@@H](C(C)C)OC(=O)[C@H](C(C)C)NC(=O)[C@H](C)OC(=O)[C@@H](C(C)C)NC(=O)[C@@H](C(C)C)OC1=O", "note": "[valinomycin]", "values": [{"measurement": "concentration at which red and green JC-9 fluorescence peak", "setting": "HL-60 cells; [2]", "result": "~0.045", "unit": "µM"}, {"measurement": "concentration of peak green JC-9 fluorescence", "setting": "HL-60 cells; [2]", "result": "~0.05", "unit": "µM"}, {"measurement": "JC-9 green fluorescence", "setting": "HL-60 cells; [3]", "result": "significantly higher; also recorded: initially increase"}, {"measurement": "JC-9 red fluorescence", "setting": "HL-60 cells; [3]", "result": "significantly higher; also recorded: initially increase"}, {"measurement": "JC-9 red/green fluorescence ratio", "setting": "HL-60 cells; at higher concentrations (above green peak)", "result": "increasing"}]}
{"smiles": "CNCCC(Oc1ccc(C(F)(F)F)cc1)c1ccccc1", "note": "(stereo not shown) [fluoxetine]", "values": [{"measurement": "cells that have lost \"normal morphology\"", "setting": "HL-60 cell line; 100 μM", "result": "Approximately 30%"}, {"measurement": "GSH (MBBR)", "setting": "HL-60 cell line; 100 μM, affected cells", "result": "reduced"}, {"measurement": "ROS (MITOSOX RED)", "setting": "HL-60 cell line; 100 μM, affected cells", "result": "increased"}]}
{"smiles": "CC(=O)[C@]1(O)Cc2c(O)c3c(c(O)c2[C@@H](O[C@H]2C[C@H](N)[C@H](O)[C@H](C)O2)C1)C(=O)c1ccccc1C3=O", "note": "[idarubicin]", "values": [{"measurement": "JC-9 red fluorescence versus untreated control cells", "setting": "HL-60 cells; HL60 cells, 1.23 μM", "result": "significantly higher"}, {"measurement": "concentration at which red fluorescence of JC-9 begins to increase significantly", "setting": "HL-60 cells; HL60 cells, concentration series", "result": 1.23, "unit": "µM"}, {"measurement": "JC-9 green fluorescence", "setting": "HL-60 cells; [3]", "result": "does not increase"}]}
{"smiles": "CO/C(=C/C(N)=O)[C@H](C)[C@H](/C=C/c1csc(-c2csc([C@@H](C)/C=C/C=C/C(C)C)n2)n1)OC", "note": "[myxothiazol]", "values": [{"measurement": "CALCEIN AM (cytoplasmic membrane permeability)", "setting": "HL-60 cell line; 100 μM, affected cells", "result": "decrease"}, {"measurement": "GSH (MBBR)", "setting": "HL-60 cell line; 100 μM, affected cells", "result": "decrease"}, {"measurement": "ROS (MITOSOX RED)", "setting": "HL-60 cell line; 100 μM, affected cells", "result": "increase"}, {"measurement": "SYTOXRED (cytoplasmic and nuclear membrane permeability, viability)", "setting": "HL-60 cell line; 100 μM, affected cells", "result": "increase"}, {"measurement": "cell morphology (light scatter)", "setting": "HL-60 cell line; 100 μM, affected cells", "result": "significant change"}, {"measurement": "SYTOXRED (cytoplasmic and nuclear membrane permeability, viability)", "setting": "HL-60 cell line; 100 μM, affected cells, listed as myxothiozol", "result": "perturbs"}]}
{"smiles": "CS(=O)(=O)N1CCN(Cc2cc3nc(-c4cccc5[nH]ncc45)nc(N4CCOCC4)c3s2)CC1", "note": "[GDC0941]", "values": [{"measurement": "kinetics of ERK phosphorylation", "setting": "[1]", "result": "delayed"}]}
{"smiles": "N#CC(C#N)=NNc1ccc(OC(F)(F)F)cc1", "note": "[FCCP, carbonyl cyanide-4-(trifluoromethoxy)phenylhydrazone]", "values": [{"measurement": "CALCEIN", "setting": "HL-60 cell line; [4]", "result": "increased"}, {"measurement": "GSH", "setting": "HL-60 cell line; [4]", "result": "reduced"}, {"measurement": "ROS", "setting": "HL-60 cell line; [4]", "result": "increased"}, {"measurement": "SYTOXRED", "setting": "HL-60 cell line; [4]", "result": "higher"}, {"measurement": "CALCEIN AM level", "setting": "HL-60 cell line; [5]", "result": "normal"}, {"measurement": "GSH level", "setting": "HL-60 cell line; [5]", "result": "normal"}, {"measurement": "ROS (indicator of mitochondrial stress)", "setting": "HL-60 cell line; [5]", "result": "increased"}, {"measurement": "nuclear and cytoplasmic membranes (SYTOX Red uptake)", "setting": "HL-60 cell line; [5]", "result": "intact"}, {"measurement": "cell morphology", "setting": "HL-60 cell line; 33 μM, second distinct population (light blue)", "result": "altered"}]}
